Data: patent publication US20260069629A1, “RECEPTACLE, DEVICE FOR RELEASING CARBON MONOXIDE, TREATMENT SYSTEM, SET FOR TREATING LIVING CELLS, METHOD OF TREATING A MAMMAL, AND CARBON MONOXIDE” (Julius-Maximilians-Universität Würzburg, in Vertretung des …, priority 2022, published 2026)

Columns and labels:
human semen/spermatozoa [1] = assay: Static oxidation-reduction potential (sORP) of spermatozoa incubated with/without CO, MiOXSYS (Example 1); assay type: cell-based; conditions: two-compartment capsule, 15 mg Mo-CORM, 90 minutes at 25-35° C.; vs samples not contacted with CO (woCO=1); FIG. 10
Experimental: (§1) In this example, the capsule (18-22 mm in length and 6-8 mm diameter) loaded with 15 mg of CO-releasing molecules (Mo-CORM) and 150 μl of an aqueous FeCl3 solution (583.3 mg/ml) was used for the preservation of a 0.7 mL to about 2.9 mL sample in a standard 15 mL Falcon tube.
(§2) Between 1.46 mL and 5.7 mL human semen/spermatozoa were collected from healthy males of between 25 and 50 years of age in 100 mL sample vials on site. Samples were then divided into two equal fractions each for subsequent incubation with CO (wCO) and without CO (woCO). In order to estimate the spermatozoa concentration in the samples and to establish an initial baseline for each sample, a routine spermiogram was performed before samples were transferred to gas-tight 15 mL Falcon tubes. Samples were incubated at 25-35° C. for 90 minutes with and without an activated capsule system in a closed container. During this incubation period liquefaction took place naturally. The samples were then analyzed for total motility, progressive motility, static oxidation-reduction potential, and for DNA fragmentation.
A Male Infertility Oxidative System (MiOXSYS, Englewood, CO) was used to determine static oxidation-reduction potential (sORP) levels. 30 μL of the sperm samples were transferred to the sample application port on a MiOXSYS sensor and analyzed for 2 minutes. […]

human semen/spermatozoa [2] = assay: DNA fragmentation of spermatozoa incubated with/without CO, Halo Sperm G2 Kit (Example 1); assay type: cell-based; conditions: two-compartment capsule, 15 mg Mo-CORM, 90 minutes at 25-35° C.; vs samples not contacted with CO (woCO=1); FIG. 11
Experimental: as §1
as §2, with “During this incubation period liquefaction took place naturally.” left out
To determine DNA fragmentation a count-based microscopy assay was performed. For this spermatozoa samples were diluted using MHM-C (Multipurpose Handling Medium-Complete, FujiFilm, IrvineScientific) to a maximum of 20×E6 spermatozoa per mL and analyzed using a Halo Sperm G2 Kit (Halotech, Madrid, Spain). […] At least 300 spermatozoa were then analyzed using a bright field microscope. […]

human semen/spermatozoa [3] = assay: Progressive motility of spermatozoa incubated with/without CO, CASA (Example 1); assay type: cell-based; conditions: two-compartment capsule, 15 mg Mo-CORM, 90 minutes; vs spermatozoa not contacted with CO
Experimental: as §1
as §2, with “Samples were incubated at 25-35° C. for 90 minutes with and without an activated capsule system in a closed container. During this incubation period liquefaction took place naturally.” left out
Total motility, progressive motility and concentration of the samples were assessed using a CEROS II (Hamilton Thorne, Beverly, MA) computer assisted sperm analysis (CASA) system. 6 μL of a sperm sample diluted 1:1 with Multipurpose Handling Medium-Complete (MHM-C, FujiFilm/IrvineScientific, Santa Ana, CA) was measured and the concentration and level of mobility (total and progressive motility) was assessed.

Human sperm = assay: Static oxidation-reduction potential (sORP) of sperm treated with single-chamber receptacles, MiOXSYS (Example 2); assay type: cell-based; conditions: vs untreated, results expressed in mV/10^6 sperm/mL, FIG. 12
Experimental: Example 2 illustrates the improvement of spermatozoan viability parameters (namely, oxidation-reduction potential) in response to different carbon monoxide (CO) incubation durations. Sperm form the same subject was either treated with carbon monoxide or left untreated, as “untreated” control. Treatments with CO varied in duration (60, 90, 180, or 270 min).
In this example, sperm samples were treated with either one, three, or six receptacles/capsules, each loaded with 5 mg Mo-CORM (corresponds to 0.44 mL CO) for 60 to 270 mins, or left untreated for the same amount of time.
Human sperm was collected from healthy volunteers in 100 mL specimen containers. Afterwards, the ejaculate was split into equal parts and filled into 15 mL gas tight falcon tubes, with one of the samples being exposed to one or more activated receptacles/capsules. Then, both samples were analyzed for static oxidation-reduction potential (sORP) via MiOXSYS after a predetermined time.
An oxidative male infertility measuring System (MiOXSYS, Englewood, CO) was used to determine static oxidation-reduction potential (sORP) levels following manufacturer's specifications. 30 μL of sample were transferred to the sample application port onto a MiOXSYS sensor and analyzed for 2 minutes. The results were expressed in milli Volt (mV) and normalized to the seminal sperm concentration (mV/10^6 sperm/mL).

[4] = Carbon monoxide release from the receptacle after combining main substance and activation substance; assay type: physicochemical
Experimental: Carbon monoxide (CO) release was 1.30 mL, 0.95 mL, 0.44 mL, and 0.23 mL corresponding to 15 mg, 10 mg, 5 mg, and 2.5 mg of the main substance 42 (“Mo-CORM”), respectively.
Carbon monoxide (CO) release ranged from 0.95 mL to 0.34 mL corresponding to 50 μL to 10 μL of the activation substance 44 (“FeCl”), respectively.

Compound | Relative oxidation-reduction-potential (sORP wCO / sORP woCO) (human semen/spermatozoa [1]) | Relative DNA fragmentation (wCO / woCO) (human semen/spermatozoa [2]) | progressive motility of spermatozoa (human semen/spermatozoa [3]) | oxidation-reduction potential (sORP) of treated gametes (Human sperm; subject 38_7, contacted with carbon monoxide for 60 min) | oxidation-reduction potential (sORP) of treated gametes (Human sperm; subject 42_1, contacted with carbon monoxide for 90 min) | released amount/volume of carbon monoxide (CO) from the receptacle ([4]; 2.5 mg of the main substance (Mo-CORM), FIG. 9A) | released amount/volume of carbon monoxide (CO) from the receptacle ([4]; 5 mg of the main substance (Mo-CORM), FIG. 9A) | released amount/volume of carbon monoxide (CO) from the receptacle ([4]; 10 mg of the main substance (Mo-CORM), FIG. 9A) | released amount/volume of carbon monoxide (CO) from the receptacle ([4]; 15 mg of the main substance (Mo-CORM), FIG. 9A) | released amount/volume of carbon monoxide (CO) from the receptacle ([4]; 10 μL of the activation substance (FeCl), FIG. 9B) | released amount/volume of carbon monoxide (CO) from the receptacle ([4]; 50 μL of the activation substance (FeCl), FIG. 9B)
[C-]#[O+] [CO, carbon monoxide] | trend to be lower | reduced | improvement | drastic reduction | drastic reduction | – | – | – | – | – | –
trisodiumtricarbonyl-[tris(isocyanoethylacetate)]molybdenum [Mo-CORM] | – | – | – | – | – | 0.23 mL | 0.44 mL | 0.95 mL | 1.30 mL | 0.34 mL | 0.95 mL
